From the supplement of paper PMC10307832

Legend:
Experiment in all cases: relative viability (nuclei count vs DMSO), 5 days (fraction); higher = more cells survive
[1] = compound: CCOC1=CC=CC=C1N=NC2=C(NN(C2=O)C3=NC(=CS3)C4=CC=CC=C4)C [BAM7] + CC(=O)Nc1cccc(-n2c(=O)n(C3CC3)c(=O)c3c(Nc4ccc(I)cc4F)n(C)c(=O)c(C)c32)c1 [Trametinib] (partner 0.02 µM)
Summary of the method: (§1)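 Relative viability equals treated-well nuclei counts divided by vehicle-well nuclei counts. Counts came from 4× images of lung cancer cell lines grown in 1536-well plates for 5 days after pin-tool dosing on the day after seeding. Dosing used one drug alone or a fixed anchor-drug dose plus five library-drug doses (not always all listed) in √10 steps, and values are medians of duplicate plates.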

[2] = compound: CCOC1=CC=CC=C1N=NC2=C(NN(C2=O)C3=NC(=CS3)C4=CC=CC=C4)C [BAM7] + N=C(N)NC(=N)NCCc1ccccc1 [Phenformin] (partner 250 µM)
Summary of the method: as §1

[3] = compound: CCn1c(-c2nonc2N)nc2c(C#CC(C)(C)O)ncc(OC[C@H]3CCCNC3)c21 + CC(C)C[C@H](NC(=O)[C@H](Cc1ccccc1)NC(=O)c1cnccn1)B(O)O [Bortezomib] (partner 0.002 µM)
Summary of the method: as §1

[4] = compound: CCn1c(-c2nonc2N)nc2c(C#CC(C)(C)O)ncc(OC[C@H]3CCCNC3)c21 + O=C(CCCCCCC(=O)Nc1ccccc1)NO [Vorinostat] (partner 1 µM)
Summary of the method: as §1

Row | Cell Line | relative viability ([1]; first compound 0.5 µM) | relative viability ([1]; first compound 5 µM) | relative viability ([1]; first compound 15.81 µM) | relative viability ([1]; first compound 50 µM) | relative viability ([2]; first compound 0.5 µM) | relative viability ([2]; first compound 5 µM) | relative viability ([2]; first compound 15.81 µM) | relative viability ([2]; first compound 50 µM) | relative viability ([3]; first compound 0.01 µM) | relative viability ([3]; first compound 0.03162 µM) | relative viability ([3]; first compound 0.1 µM) | relative viability ([3]; first compound 0.3162 µM) | relative viability ([3]; first compound 1 µM) | relative viability ([4]; first compound 0.01 µM) | relative viability ([4]; first compound 0.03162 µM) | relative viability ([4]; first compound 0.1 µM) | relative viability ([4]; first compound 0.3162 µM) | relative viability ([4]; first compound 1 µM)
1 | HCC-827 | 0.535 | 0.548 | 0.591 | 0.556 | 0.397 | 0.373 | 0.453 | 0.362 | 1.07 | 1.04 | 1.09 | 0.988 | 1.02 | 0.86 | 0.866 | 0.831 | 0.76 | 0.834
2 | HOP-62 | 0.37 | 0.416 | 0.376 | 0.352 | 0.668 | 0.867 | 0.664 | 0.714 | 0.623 | 0.615 | 0.803 | 0.376 | 0.922 | 0.635 | 0.688 | 0.644 | 0.555 | 0.644
3 | IA-LM |  |  |  |  |  |  |  |  | 0.854 | 0.77 | 0.877 | 0.679 | 0.373 | 1.04 | 0.961 | 0.953 | 0.859 | 1
4 | LC-2-ad | 0.884 | 0.91 | 0.87 | 0.847 | 0.538 | 0.55 | 0.582 | 0.591 | 0.986 | 0.993 | 1.03 | 0.977 | 0.968 | 0.736 | 0.715 | 0.712 | 0.659 | 0.69
5 | LCLC-97TM1 | 0.202 | 0.199 |  | 0.224 | 0.45 | 0.443 | 0.43 | 0.473 | 0.756 | 0.383 | 0.794 | 0.459 | 0.522 | 0.8 | 0.722 | 0.774 | 0.624 | 0.664
6 | LCLC-103H | 0.664 | 0.706 | 0.69 | 0.684 | 0.334 | 0.354 | 0.336 | 0.327 | 1.02 | 1.12 | 1.08 | 1.07 | 0.937 | 0.87 | 0.752 | 0.725 | 0.757 | 0.81
7 | LK-2 | 0.737 | 0.945 | 0.811 | 0.841 | 0.507 | 0.389 | 0.466 | 0.636 |  |  |  |  |  | 0.239 | 0.291 | 0.289 | 0.316 | 0.321
8 | LOU-NH91 | 0.794 | 0.788 | 0.804 | 0.805 | 0.689 | 0.795 | 0.66 | 0.66 | 0.57 | 0.344 | 0.481 | 0.448 | 0.47 | 0.899 | 0.828 | 1 | 0.767 | 0.794
9 | LU99A | 0.54 | 0.548 | 0.552 | 0.575 | 0.802 | 0.819 | 0.896 | 0.94 | 1.21 | 1.29 | 1.04 | 1.04 | 1.08 | 0.52 | 0.531 | 0.46 | 0.453 | 0.571
10 | LXF-289 | 0.739 | 0.762 | 0.734 | 0.641 | 0.556 | 0.552 | 0.524 | 0.516 | 1 | 0.963 | 1 | 0.976 | 1.02 | 0.822 | 0.791 | 0.737 | 0.737 | 0.808
11 | NCI-H358 |  | 0.152 | 0.137 | 0.126 | 0.343 | 0.383 | 0.369 | 0.376 |  |  |  |  |  | 0.766 | 0.691 | 0.787 | 0.629 | 0.662
12 | NCI-H522 | 0.72 | 0.741 | 0.665 | 0.718 | 0.671 | 0.768 | 0.614 | 0.712 |  |  |  |  |  | 0.944 | 0.911 | 0.853 | 0.847 | 0.938
13 | NCI-H1299 |  |  |  |  |  |  |  |  | 1.02 | 1.04 | 0.992 | 0.988 | 1 |  |  |  |  | 
14 | NCI-H1395 | 0.972 | 1.28 | 0.946 | 1.06 | 0.444 | 0.522 | 0.446 | 0.538 |  |  |  |  |  | 0.575 | 0.517 | 0.597 | 0.525 | 0.52
15 | NCI-H1563 |  |  |  |  | 0.62 | 0.685 | 0.654 | 0.685 | 0.963 | 0.842 | 0.752 | 0.829 | 0.796 |  |  |  |  | 
16 | NCI-H1623 |  |  |  |  | 0.606 | 0.561 | 0.542 | 0.673 |  |  |  |  |  |  |  |  |  | 
17 | NCI-H1648 | 0.558 | 0.476 | 0.421 | 0.464 |  |  |  |  |  |  |  |  |  | 0.591 | 0.418 | 0.365 | 0.367 | 0.315
18 | NCI-H1703 |  |  |  |  |  |  |  |  | 0.327 | 0.391 | 0.339 | 0.201 | 0.209 |  |  |  |  | 
19 | NCI-H1792 | 0.46 | 0.462 | 0.401 | 0.362 | 0.333 | 0.219 | 0.274 | 0.369 | 1.04 | 0.968 | 0.964 | 0.861 | 0.768 |  |  |  |  | 
20 | NCI-H1793 | 0.407 | 0.473 | 0.385 | 0.483 | 0.342 | 0.338 | 0.348 | 0.317 |  |  |  |  |  | 0.652 | 0.692 |  | 0.605 | 0.704
21 | NCI-H1944 | 0.444 | 0.433 | 0.434 | 0.439 | 0.223 | 0.199 | 0.205 | 0.22 |  |  |  |  |  | 0.645 | 0.477 | 0.568 | 0.514 | 0.585
22 | NCI-H2170 | 0.917 | 0.799 | 0.814 | 0.816 | 0.385 | 0.362 | 0.388 | 0.371 |  |  |  |  |  | 0.841 | 0.764 | 0.836 | 0.699 | 0.85
23 | NCI-H2342 | 0.933 | 0.818 | 0.745 | 0.82 | 0.59 | 0.739 | 0.594 | 0.521 |  |  |  |  |  | 0.713 | 0.647 | 0.579 | 0.724 | 0.782
24 | SK-MES-1 | 0.566 | 0.551 | 0.523 | 0.495 | 0.721 | 0.724 | 0.607 | 0.659 |  |  |  |  |  | 1.08 | 1.1 | 1.1 | 1.05 | 1.1
25 | SW 900 |  | 0.72 |  | 0.888 | 0.548 | 0.544 | 0.576 | 0.759 |  |  |  |  |  | 0.524 | 0.503 | 0.386 | 0.312 | 0.569
